# “And” between values parts separate entries of the source, which are not always exact repeats. Equal entries are not always repeated. Where two headings read alike, the source gives them in different places.
# Experiments:
# polio virus = settings: cited from earlier work
# MMV = type: cell-based, Murine minute virus; settings: 2-8° C.; for RF (Reduction Factor): 5 mM Tris + 1.0M Arginine-HCl (pH 7.0)
# X-MLV [1] = type: cell-based, Xenotropic Murine leukemia virus
# X-MLV [2] = type: cell-based, Xenotropic Murine leukemia virus; settings: for RF (Reduction Factor) / Sample Titer: 2-8° C.
# SuHV-1 = type: cell-based, Suid herpesvirus 1
# X-MLV [3] = assay: TRITON X-100 X-MLV inactivation in GE2-Fcγ-Fcε clarified conditioned media, TCID50 assay; type: cell-based, Xenotropic Murine leukemia virus
# Method: Virus inactivation kinetics obtained by exposure to low pH, TRITON® X-100 and arginine were studied using sample process intermediates of a recombinant antibody designated GE2-Fcγ-Fcε. All studies were performed at 2-8° C.
# For the TRITON® X-100 inactivation studies, TRITON® X-100 was added to the GE2-Fcγ-Fcε clarified conditioned media (CCM) at concentrations of 0.10% (v/v) and 0.20% (v/v). MABSELECT™ (GE Healthcare Bio-Sciences Corp., Piscataway, N.J., USA) Protein-A chromatography eluates containing GE2-Fcγ-Fcε with the pH adjusted to 3.7 or 3.9 were used as the starting material for the low pH viral inactivation studies. Neutralized MABSELECT™ Eluate buffer (1.0 M arginine-HCl, ˜5 mM Tris, pH 7.3 (+/−) 0.5) and neutralized MABSELECT™ Eluate buffer containing GE2-Fcγ-Fcε were also used as process intermediates for the additional inactivation studies. The process intermediates used in these studies were known to be stable under the examined conditions.
# TRITON® X-100 inactivation experiments were performed in duplicate using final concentrations of 0.10% or 0.20% (v/v) TRITON® X-100 in GE2-Fcγ-Fcε clarified conditioned media.
# [4] = 1.0 M arginine-HCl, ~5 mM Tris, pH ~7.0, with GE2-Fcγ-Fcε 3.3 mg/mL, 2-8° C., 120 min
# [5] = 5 mM Tris + 1.0M Arginine-HCl (pH 7.0), 2-8° C., 15 min
# [6] = 5 mM Tris + 1.0M Arginine-HCl (pH 7.0), 2-8° C., 30 min
# [7] = 5 mM Tris + 1.0M Arginine-HCl (pH 7.0), 2-8° C., 60 min
# [8] = 5 mM Tris + 1.0M Arginine-HCl (pH 7.0), 2-8° C., 120 min
# [9] = 5 mM Tris + 1.0M Arginine-HCl (pH 7.0), 2-8° C., 240 min (non-quenched)
# [10] = 5 mM Tris + 1.0M Arginine-HCl (pH 7.0), 2-8° C., 240 min (quenched)
# [11] = 0.10% (v/v) in GE2-Fcγ-Fcε clarified conditioned media, 2-8° C., 5 min
# [12] = 0.10% (v/v) in GE2-Fcγ-Fcε clarified conditioned media, 2-8° C., 45 min
# [13] = 0.10% (v/v) in GE2-Fcγ-Fcε clarified conditioned media, 2-8° C., 120 min
# [14] = 0.20% (v/v) in GE2-Fcγ-Fcε clarified conditioned media, 2-8° C., 30 min
# [15] = 0.20% (v/v) in GE2-Fcγ-Fcε clarified conditioned media, 2-8° C., 45 min
compound,measurement,setting,value
"N=C(N)NCCC[C@H](N)C(=O)O [Arginine, arginine]",inactivation of non-enveloped polio virus (in words),polio virus,ineffective
same,RF (Reduction Factor),MMV; 240 min (non-quenched),0.30 and 0.17
same,RF (Reduction Factor),MMV; 240 min (quenched),−0.25
same,Adjusted titer of sample,MMV,6.83 Log10 TCID50/mL and 7.33 Log10 TCID50/mL
same,Adjusted titer of sample (Output virus titer),MMV,7.38 Log10 TCID50/mL and 7.75 Log10 TCID50/mL
same,Titer of quenched sample,MMV,6.38 Log10 TCID50/mL and 6.75 Log10 TCID50/mL
same,Titer of sample from TCID50 assay,MMV,6.83 Log10 TCID50/mL and 7.33 Log10 TCID50/mL
same,Adjusted titer of sample,MMV; 15 min,7.50 Log10 TCID50/mL and 7.25 Log10 TCID50/mL
same,Titer of quenched sample,MMV; 15 min,6.50 Log10 TCID50/mL and 6.25 Log10 TCID50/mL
same,Adjusted titer of sample,MMV; 30 min,7.63 Log10 TCID50/mL and 7.38 Log10 TCID50/mL
same,Titer of quenched sample,MMV; 30 min,6.63 Log10 TCID50/mL and 6.38 Log10 TCID50/mL
same,Adjusted titer of sample,MMV; 60 min,7.63 Log10 TCID50/mL and 7.75 Log10 TCID50/mL
same,Titer of quenched sample,MMV; 60 min,6.63 Log10 TCID50/mL and 6.75 Log10 TCID50/mL
same,Adjusted titer of sample,MMV; 120 min,7.50 Log10 TCID50/mL and 7.75 Log10 TCID50/mL
same,Titer of quenched sample,MMV; 120 min,6.50 Log10 TCID50/mL and 6.75 Log10 TCID50/mL
same,X-MLV Reduction Factor in all of the arginine studies,"X-MLV [1]; 1 M arginine, with and without GE2-Fcγ-Fcε, 120 min of exposure",≥ 4.1
same,Output titer,"X-MLV [1]; 1.0 M arginine-HCl, ~5 mM Tris, pH ~7.0, no GE2-Fcγ-Fcε, 2-8° C., 120 min",≦1.17 Log10 TCID50/mL
same,Output titer,X-MLV [1]; [4],≦1.17 Log10 TCID50/mL
same,RF (Reduction Factor),X-MLV [1]; [4],≧4.2
same,"exposure time after which X-MLV was at, or below, detectable levels","X-MLV [1]; neutral solution containing 1 M arginine, Runs 9-12",15 min
same,RF (Reduction Factor),"X-MLV [2]; 5 mM Tris + 0.10M Arginine-HCl (pH 7.0), 30 min",0.2 and 0.3
same,RF (Reduction Factor),"X-MLV [2]; 5 mM Tris + 0.10M Arginine-HCl (pH 7.0), 120 min",0.3
same,RF (Reduction Factor),"X-MLV [2]; 5 mM Tris + 0.50M Arginine-HCl (pH 7.0), 15 min",1.7 and 1.6
same,RF (Reduction Factor),"X-MLV [2]; 5 mM Tris + 0.50M Arginine-HCl (pH 7.0), 30 min",2.3 and 2.0
same,RF (Reduction Factor),"X-MLV [2]; 5 mM Tris + 0.50M Arginine-HCl (pH 7.0), 60 min",2.7 and 2.5
same,RF (Reduction Factor),"X-MLV [2]; 5 mM Tris + 0.50M Arginine-HCl (pH 7.0), 120 min",3.4 and 3.5
same,RF (Reduction Factor),"X-MLV [2]; 5 mM Tris + 0.50M Arginine-HCl (pH 7.0), 120 min, listed as arginine",3.4 and 3.5
same,Sample Titer,X-MLV [2]; 15 min,5.59 Log10 TCID50/mL and 5.71 Log10 TCID50/mL and 4.10 Log10 TCID50/mL and 4.04 Log10 TCID50/mL
same,Sample Titer,X-MLV [2]; 30 min,5.71 Log10 TCID50/mL and 5.29 Log10 TCID50/mL and 3.50 Log10 TCID50/mL and 3.68 Log10 TCID50/mL
same,Sample Titer,X-MLV [2]; 60 min,5.65 Log10 TCID50/mL and 5.29 Log10 TCID50/mL and 3.03 Log10 TCID50/mL and 3.15 Log10 TCID50/mL
same,X-MLV inactivation (in words),X-MLV [2]; pH 7,did not occur
same,Adjusted titer of sample,SuHV-1; [5],2.95 Log10 TCID50/mL and 2.89 Log10 TCID50/mL
same,RF (Reduction Factor),SuHV-1; [5],2.30 and 2.11
same,Titer of quenched sample,SuHV-1; [5],1.95 Log10 TCID50/mL and 1.89 Log10 TCID50/mL
same,Adjusted titer of sample,SuHV-1; [6],≦1.57 Log10 TCID50/mL
same,Titer of quenched sample,SuHV-1; [6],≦0.57 Log10 TCID50/mL
same,Adjusted titer of sample,SuHV-1; [7],≦1.57 Log10 TCID50/mL
same,Titer of quenched sample,SuHV-1; [7],≦0.57 Log10 TCID50/mL
same,Adjusted titer of sample,SuHV-1; [8],≦1.57 Log10 TCID50/mL
same,Titer of quenched sample,SuHV-1; [8],≦0.57 Log10 TCID50/mL
same,Adjusted titer of sample,SuHV-1; [9],≦1.53 Log10 TCID50/mL
same,Titer of sample from TCID50 assay,SuHV-1; [9],≦1.53 Log10 TCID50/mL
same,Adjusted titer of sample (Output virus titer),SuHV-1; [10],≦1.57 Log10 TCID50/mL
same,Titer of quenched sample,SuHV-1; [10],≦0.57 Log10 TCID50/mL
same,exposure time after which SuHV-1 titer was below the assay limit of detection,"SuHV-1; 1.0 M arginine (pH 7.0), duplicate runs",30 min
"NCC(=O)O [Glycine, glycine, reference compound]",Adjusted titer of sample,X-MLV [2]; pH 7,6.00 Log10 TCID50/mL and 5.50 Log10 TCID50/mL and 5.60 Log10 TCID50/mL and 5.38 Log10 TCID50/mL and 5.63 Log10 TCID50/mL
same,Adjusted titer of sample (Output virus titer),X-MLV [2]; pH 7,5.63 Log10 TCID50/mL and 5.88 Log10 TCID50/mL
same,Titer of quenched sample,X-MLV [2]; pH 7,5.00 Log10 TCID50/mL and 4.50 Log10 TCID50/mL and 4.63 Log10 TCID50/mL and 4.38 Log10 TCID50/mL and 4.88 Log10 TCID50/mL
same,Titer of sample from TCID50 assay,X-MLV [2]; pH 7,5.60 Log10 TCID50/mL
TRITON ® X-100,Adjusted titer of sample,X-MLV [3]; [11],≦2.00 Log10 TCID50/mL
same,Titer of quenched sample,X-MLV [3]; [11],≦0.70 Log10 TCID50/mL
same,Adjusted titer of sample,X-MLV [3]; [12],≦1.99 Log10 TCID50/mL
same,Titer of quenched sample,X-MLV [3]; [12],≦0.69 Log10 TCID50/mL
same,Adjusted titer of sample (Output virus titer),X-MLV [3]; [13],≦1.99 Log10 TCID50/mL
same,RF (Reduction Factor),X-MLV [3]; [13],≥ 3.1
same,Titer of quenched sample,X-MLV [3]; [13],≦0.69 Log10 TCID50/mL
same,exposure time after which X-MLV was below detection limits,X-MLV [3]; 0.10% and 0.20% TRITON X-100,5 min
same,RF (Reduction Factor),"X-MLV [3]; 0.20% (v/v) in GE2-Fcγ-Fcε clarified conditioned media, 2-8° C., 15 min",≧3.1
same,Adjusted titer of sample,X-MLV [3]; [14],≦1.99 Log10 TCID50/mL
same,RF (Reduction Factor),X-MLV [3]; [14],≧3.1
same,Titer of quenched sample,X-MLV [3]; [14],≦0.69 Log10 TCID50/mL
same,Adjusted titer of sample,X-MLV [3]; [15],≦1.99 Log10 TCID50/mL
same,RF (Reduction Factor),X-MLV [3]; [15],≧3.1
same,Titer of quenched sample,X-MLV [3]; [15],≦0.69 Log10 TCID50/mL
same,RF (Reduction Factor),"X-MLV [3]; 0.20% (v/v) in GE2-Fcγ-Fcε clarified conditioned media, 2-8° C., 120 min",≥ 2.6
